# US6211196A, “Benzyloxy-substituted, fused N-heterocycles, processes for their preparation, and their use as bradykinin receptor antagonists” (Aventis Pharma Deutschland GmbH, priority 1997, dated 2001)
# What was measured:
# [1] = target: T1, bradykinin β2 receptor (Cavia porcellus, UniProt O70526); experiment: Ki on membrane preparations of guinea-pig ileum, 3H-bradykinin competition; assay type: binding; conditions: 3H-bradykinin 0.25 to 0.3 nmol/l, guinea-pig ileum membranes, room temperature, 60 minutes, pH 6.8
# T1 construct: membrane preparations of the guinea-pig ileum; from tissue; host or cells: guinea-pig ileum membranes
# T1 sequence (O70526 1-372): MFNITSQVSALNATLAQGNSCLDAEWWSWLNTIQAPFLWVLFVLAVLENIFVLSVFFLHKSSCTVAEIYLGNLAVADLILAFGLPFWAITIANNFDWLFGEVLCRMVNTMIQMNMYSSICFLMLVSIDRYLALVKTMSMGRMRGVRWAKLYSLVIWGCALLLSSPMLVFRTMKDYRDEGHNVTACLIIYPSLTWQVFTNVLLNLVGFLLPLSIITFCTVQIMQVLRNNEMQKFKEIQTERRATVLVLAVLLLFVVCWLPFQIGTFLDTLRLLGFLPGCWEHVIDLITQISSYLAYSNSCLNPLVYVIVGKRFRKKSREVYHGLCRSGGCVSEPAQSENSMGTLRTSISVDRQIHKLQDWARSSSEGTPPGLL
# Experimental: B. Innis et al., Proc. Natl. Acad. Sci. USA, 17 (1981) 2630) according to the following procedure: […] Ligand: ^3 H-BRADYKININ (from NEN Du Pont) Both buffers are adjusted to pH 6.8 using 5 molar NaOH. Guinea-pig ilea are grossly freed from intestinal contents by careful brushing and cleaned in 0.9% strength NaCl solution. The pieces of ilea about 2 cm long are transferred to ice-cold TES buffer (about 1 g/10 ml) and homogenized in an ice bath for about 30 sec. using an Ultraturrax. The homogenate is then filtered through three layers of gauze, and the filtrate is centrifuged at 50,000 g/10 minutes. The supernatant is discarded, and the pellet is rehomogenized in the same volume of TES buffer and centrifuged again at 50,000 g/10 minutes. The pellet is rehomogenized in incubation buffer (about 1 g/5 ml) and frozen at -70° C. in cryotubes in 2 ml portions. The protein concentration of the finished membrane suspension is determined according to LOWRY and should be about 15 μg/100 μl. All incubations are carried out at room temperature for 60 minutes on microtiter plates (96×300 μl) in a 200 μl volume. All mixtures are in incubation buffer. To this end, 50 μl of the radioligand, 50 μl of the preparation to be tested, and 100 μl of the membrane suspension are pipetted into the hollows of the microtiter plate in succession. Nonspecific binding: for each concentration of the radioactive ligand, the nonspecific binding must be determined. […] In this test, HOE 140 (10 μmol/l) is used. […] The reaction is started by the addition of 100 μl of the membrane suspension. Here a fixed quantity of the radioactive ligand (0.25 to 0.3 nmol/l of ^3 H-bradykinin) and various concentrations of the unlabeled agonists or antagonists are employed. 50 μl of the preparations or standard to be tested in the concentrations 10^-5 to 10^-10 mol/l are added to 50 μl in each case of the ^3 H-bradykinin solution, and the reaction is started by addition of 100 μl of membrane suspension. Triplicate determinations also are carried out in this test, and three samples are incubated with 10 μmol/l of HOE 140 to determine the nonspecific binding. The preparations to be tested for competition are completely dissolved in a concentration of 1 mmol/l in dimethyl sulfoxide (DMSO), and then further diluted with DMSO. This solution is then diluted 1:25 with incubation buffer. […] The still moist filters are punched out into mini-scintillation tubes, and these are filled with 3 ml of scintillator. After a soaking time of about 12 hours, the samples are briefly shaken and measured in a beta-counter. […] If a displacement of the radioligand of 50% or more is detectable at the highest concentration, a complete analysis (competition experiment) is carried out using at least 8 concentrations. Assessment is carried out by means of the LIGAND program package (McPherson, Minson & Rodbard, marketed by: Elsevier-BIOSOFT), which carries out the necessary calculations for the determination of IC50 and Ki values. This program moreover carries out graphic presentations of the saturation or displacement curves as well as the SCATCHARD plot, HILL plot, or HOFSTEE plot.
# [2] = test system: bradykinin-induced contraction of the guinea-pig ileum; experiment: bradykinin-induced contraction of the guinea-pig ileum; conditions: isolated guinea-pig ileum, bradykinin 4×10^-8 mol/l, antagonist action time 10 min, 37° C.
# Description: In addition, for the determination of the bradykinin-antagonistic action of the compounds of fomula (I), their effect on the bradykinin-induced contraction of the guinea-pig ileum can be measured according to the following protocol:
# Guinea-pigs about 300 g in weight (Morioth strain, .male..female.) are killed by a blow to the neck and exsanguinated. The ileum is dissected out in a length of about 20 cm, rinsed with Tyrode solution (Record Syringe), and thus freed from the intestinal contents. It is then divided into sections 1.5 cm long. These are fixed in organ baths of 10 ml capacity, which are filled with Tyrode solution, and connected to extension-measuring strips (isometric contraction measurement). The preload is 1 g. The Tyrode solution is warmed to 37° C. in a water bath and bubbled through with compressed air. After an interval of 30 min, the experiment is begun. After recording the biological zero line, bradykinin in a final concentration of 4×10^-8 mol/l is added per organ bath, and the […] is recorded. Rinsing with Tyrode solution is then carried out for three min., and after a break of 20 min., bradykinin is again added. The maximum of the contraction is achieved (control). Rinse again, break. […] The experiment is recorded on a pen recorder.
# Thus, the compounds of Examples 6 and 20, for example, have the following IC50 values determined by the above procedure: […]
Compound,Ki [1] [nM],IC50 [2] [nM]
"COC(=O)CCCCC(=O)NCC(=O)N(C)c1ccc(OC)c(COc2cccc3ccc(C)nc23)c1SC [Example 20, 8-[6-Methoxy-2-methylthio-3-(N-5-methoxycarbonylpentanoylglycyl-N-methyl)aminobenzyloxy]-2-methylquinoline]",5.4,56
"CCNC(=O)NCC(=O)N(C)c1ccc(OC)c(COc2cccc3ccc(C)nc23)c1C#N [Example 9, N-[2-Cyano-4-methoxy-3-(2-methylquinolin-8-yloxymethyl)phenyl]-2-(3-ethylureido)-N-methylacetamide]",6,
"Cc1ccc2cccc(OCc3c(Cl)ccc(N(C)C(=O)CNC(=O)NCCCCN)c3C#N)c2n1 [Example 6, 8-[6-Chloro-2-cyano-3-[N-(4-aminobutylaminocarbonylglycyl-N-methyl]aminobenzyloxy]-2-methylquinoline bistrifluoroacetate]",0.1,350
"CSc1ccc(N(C)C(=O)CNC(=O)/C=C/c2ccc(NC(C)=O)nc2)c(SC)c1COc1cccc2ccc(C)nc12 [Example 24, 8-[2,6-Dithiomethyl-3-(3-(6-acetylaminopyridin-3-yl)acryloylglycyl-N-methyl)aminobenzyloxy]-2-methylquinoline]",1,
"CCNC(=O)NCC(=O)N(C)c1ccc(Cl)c(COc2cccc3ccc(C)nc23)c1C#N [Example 1, 8-[6-Chloro-2-cyano-3-(N-ethylaminocarbonylglycyl-N-methyl)amino-benzyloxy]-2-methylquinoline]",8.3,
COc1c(N(C)C(=O)CNC(=O)/C=C/c2ccc(C(F)(F)F)cc2)ccc(SC)c1COc1cccc2ccc(C)nc12 [Example 16],17.4,
